Test results reported in patent publication US20070048356A1, “Antimicrobial treatment of nonwoven materials for infection control” (priority 2005, published 2007).

What follows are substances tested on P. aeruginosa (ATCC 9027) (assay: Dynamic Shake Flask (based on ASTM E 2149-01) on treated nonwoven). Settings: Table 13; Meltblown; contact time 1 min.
Format: cell-based
Protocol: (§1) The test organisms are grown in 25 mL appropriate broth medium for about 24±2 hours at 37±2° C. in a wrist action shaker. The bacterial culture is then transferred by placing about 100 μL aliquot in 25 mL of broth and grown again for about 24±2 hours at 37±2° C. The organisms are then centrifuged and washed three times with phosphate buffered saline (PBS). The organisms are then suspended in PBS to obtain an inoculum of approximately 1×10^8 CFU/mL.
(§2) The test articles and control swatches are exposed to an ultraviolet light source for about 5-10 minutes per side before testing to assure that the swatches are sanitized prior to inoculation with the bacteria. The test materials are brought into contact with a known population of test bacteria from the inoculum for a specified period of time. A sample is then plated at the end of the exposure time to enumerate the surviving bacteria. The log10 reduction form the control material and the original population is calculated using the following formula: Log10 Control*−Log10 CFU/swatch Test Article=Log10 Reduction
[…] This buffer solution contains a chemical to de-activate or “neutralize” the antimicrobial agent to (a) stop the active agent from killing the organisms after the designated time period and (b) to prevent artifacts that may arise from exposing the microorganisms to the antimicrobial in solution rather than solely on the substrate. Because each chemical used as an antimicrobial agent is a little different (ie: cationic, nonionic, metal, etc), a different neutralizer was likely added in each case to shut off the antimicrobial at the desired end point of the experiment. […] The neutralizer employed may be selected from a list that is commonly used in the field. […] Testing Mat.
With Chitosan glycolate [1.0% Chitosan] the “Dynamic Shake Flask Log10 Reduction” value was 0.5 Log10. For “N-Alkyl Polyglycoside [1.0% Alkyl Polyglycoside]”, the “Dynamic Shake Flask Log10 Reduction” value was 2.38 Log10. For “PG-Hydroxyethylcellulose Cocodimonium Chloride”, the “Dynamic Shake Flask Log10 Reduction” value was 0.34 Log10.

Same assay, conditions: Table 13; Meltblown; contact time 5 min
In the case of Chitosan glycolate [1.0% Chitosan], the “Dynamic Shake Flask Log10 Reduction” value is reported as 0.62 Log10. For “N-Alkyl Polyglycoside [1.0% Alkyl Polyglycoside]”, the “Dynamic Shake Flask Log10 Reduction” value was 4 Log10. With “PG-Hydroxyethylcellulose Cocodimonium Chloride” the “Dynamic Shake Flask Log10 Reduction” value was 0.35 Log10.

Same assay, conditions: Table 13; Meltblown; contact time 15 min
For Chitosan glycolate [1.0% Chitosan], the “Dynamic Shake Flask Log10 Reduction” value was 0.61 Log10. In the case of “N-Alkyl Polyglycoside [1.0% Alkyl Polyglycoside]”, the “Dynamic Shake Flask Log10 Reduction” value is reported as 4 Log10. With “PG-Hydroxyethylcellulose Cocodimonium Chloride” the “Dynamic Shake Flask Log10 Reduction” value was 0.42 Log10.

Same assay, conditions: Table 13; SMS; contact time 1 min
For Chitosan glycolate [1.0% Chitosan], the “Dynamic Shake Flask Log10 Reduction” value was 0.81 Log10. With “N-Alkyl Polyglycoside [1.0% Alkyl Polyglycoside]” the “Dynamic Shake Flask Log10 Reduction” value was 0.37 Log10. In the case of “PG-Hydroxyethylcellulose Cocodimonium Chloride”, the “Dynamic Shake Flask Log10 Reduction” value is reported as 4 Log10.

Same assay, conditions: Table 13; SMS; contact time 5 min
For Chitosan glycolate [1.0% Chitosan], the “Dynamic Shake Flask Log10 Reduction” value was 4 Log10. With “N-Alkyl Polyglycoside [1.0% Alkyl Polyglycoside]” the “Dynamic Shake Flask Log10 Reduction” value was 0.37 Log10. For “PG-Hydroxyethylcellulose Cocodimonium Chloride”, the “Dynamic Shake Flask Log10 Reduction” value was 4 Log10.

Same assay, conditions: Table 13; SMS; contact time 15 min
With Chitosan glycolate [1.0% Chitosan] the “Dynamic Shake Flask Log10 Reduction” value was 4 Log10. With “N-Alkyl Polyglycoside [1.0% Alkyl Polyglycoside]” the “Dynamic Shake Flask Log10 Reduction” value was 0.36 Log10. For “PG-Hydroxyethylcellulose Cocodimonium Chloride”, the “Dynamic Shake Flask Log10 Reduction” value was 4 Log10.

Same assay, conditions: Table 13; Spunbond; contact time 1 min
In the case of Chitosan glycolate [1.0% Chitosan], the “Dynamic Shake Flask Log10 Reduction” value is reported as 0.47 Log10. For “N-Alkyl Polyglycoside [1.0% Alkyl Polyglycoside]”, the “Dynamic Shake Flask Log10 Reduction” value was 0.61 Log10. With “PG-Hydroxyethylcellulose Cocodimonium Chloride” the “Dynamic Shake Flask Log10 Reduction” value was 4 Log10.

Same assay, conditions: Table 13; Spunbond; contact time 5 min
With Chitosan glycolate [1.0% Chitosan] the “Dynamic Shake Flask Log10 Reduction” value was 2.16 Log10. “N-Alkyl Polyglycoside [1.0% Alkyl Polyglycoside]” was tested, and the “Dynamic Shake Flask Log10 Reduction” value was 0.41 Log10. “PG-Hydroxyethylcellulose Cocodimonium Chloride” was tested, and the “Dynamic Shake Flask Log10 Reduction” value was 4 Log10.

Same assay, conditions: Table 13; Spunbond; contact time 15 min
In the case of Chitosan glycolate [1.0% Chitosan], the “Dynamic Shake Flask Log10 Reduction” value is reported as 4 Log10. In the case of “N-Alkyl Polyglycoside [1.0% Alkyl Polyglycoside]”, the “Dynamic Shake Flask Log10 Reduction” value is reported as 0.41 Log10. With “PG-Hydroxyethylcellulose Cocodimonium Chloride” the “Dynamic Shake Flask Log10 Reduction” value was 4 Log10.

The substances below were run on A. Niger (ATCC 16404) in the same assay as above. Settings: Table 14; Spunbond; contact time 1 min.
Format: cell-based
Protocol: as §1, §2
[…] This buffer solution contains a chemical to de-activate or “neutralize” the antimicrobial agent to (a) stop the active agent from killing the organisms after the designated time period and (b) to prevent artifacts that may arise from exposing the microorganisms to the antimicrobial in solution rather than solely on the substrate. Because each chemical used as an antimicrobial agent is a little different (ie: cationic, nonionic, metal, etc), a different neutralizer was likely added in each case to shut off the antimicrobial at the desired end point of the experiment. […] The neutralizer employed may be selected from a list that is commonly used in the field. These include, non-ionic degtergents, Bisulphate, lecithin, leethen broth, thiosulfate, thioglycolate, and pH buffers, Method similar to those described in American Society for Testing and Materials, Standard Practices for Evaluating Inactivators of Antimicrobial Agents Used in Disinfectant, Sanitizer, Antiseptic, or Preserved Products, Amer. Soc. Testing Mat. E 1054-91 (1991) can be used.
With Chitosan glycolate [1.0% Chitosan] the “Dynamic Shake Flask Log10 Reduction” value was 0.11 Log10. In the case of “N-Alkyl Polyglycoside [1.0% Alkyl Polyglycoside]”, the “Dynamic Shake Flask Log10 Reduction” value is reported as 0.64 Log10. For “PG-Hydroxyethylcellulose Cocodimonium Chloride”, the “Dynamic Shake Flask Log10 Reduction” value was 0.00 Log10.

Same assay, conditions: Table 14; Spunbond; contact time 5 min
In the case of Chitosan glycolate [1.0% Chitosan], the “Dynamic Shake Flask Log10 Reduction” value is reported as 0.27 Log10. With “N-Alkyl Polyglycoside [1.0% Alkyl Polyglycoside]” the “Dynamic Shake Flask Log10 Reduction” value was 0.53 Log10. For “PG-Hydroxyethylcellulose Cocodimonium Chloride”, the “Dynamic Shake Flask Log10 Reduction” value was 0.01 Log10.

Same assay, conditions: Table 14; Spunbond; contact time 15 min
For Chitosan glycolate [1.0% Chitosan], the “Dynamic Shake Flask Log10 Reduction” value was 0.31 Log10. “N-Alkyl Polyglycoside [1.0% Alkyl Polyglycoside]” was tested, and the “Dynamic Shake Flask Log10 Reduction” value was 0.50 Log10. “PG-Hydroxyethylcellulose Cocodimonium Chloride” was tested, and the “Dynamic Shake Flask Log10 Reduction” value was 0.07 Log10.

What follows are substances tested on C. Albicans (ATCC 10231) in the same assay as above. Settings: Table 15; SMS; contact time 1 min.
Format: cell-based
For Chitosan glycolate [1.0% Chitosan], the “Dynamic Shake Flask Log10 Reduction” value was 0.04 Log10. In the case of “N-Alkyl Polyglycoside [1.0% Alkyl Polyglycoside]”, the “Dynamic Shake Flask Log10 Reduction” value is reported as 0.59 Log10. With “PG-Hydroxyethylcellulose Cocodimonium Chloride” the “Dynamic Shake Flask Log10 Reduction” value was 1.25 Log10.

Same assay, conditions: Table 15; SMS; contact time 5 min
In the case of Chitosan glycolate [1.0% Chitosan], the “Dynamic Shake Flask Log10 Reduction” value is reported as 0.13 Log10. For “N-Alkyl Polyglycoside [1.0% Alkyl Polyglycoside]”, the “Dynamic Shake Flask Log10 Reduction” value was 0.08 Log10. For “PG-Hydroxyethylcellulose Cocodimonium Chloride”, the “Dynamic Shake Flask Log10 Reduction” value was 2.12 Log10.

Same assay, conditions: Table 15; SMS; contact time 15 min
With Chitosan glycolate [1.0% Chitosan] the “Dynamic Shake Flask Log10 Reduction” value was 1 Log10. In the case of “N-Alkyl Polyglycoside [1.0% Alkyl Polyglycoside]”, the “Dynamic Shake Flask Log10 Reduction” value is reported as 0.19 Log10. In the case of “PG-Hydroxyethylcellulose Cocodimonium Chloride”, the “Dynamic Shake Flask Log10 Reduction” value is reported as 2.56 Log10.

These substances were tested on S. aureus (ATCC 6538) in the same assay as above. Settings: Table 12; Meltblown; contact time 1 min.
Format: cell-based
For Chitosan glycolate [1.0% Chitosan], the “Dynamic Shake Flask Log10 Reduction” value was 0.26 Log10. For “N-Alkyl Polyglycoside [1.0% Alkyl Polyglycoside]”, the “Dynamic Shake Flask Log10 Reduction” value was 2.97 Log10. For “PG-Hydroxyethylcellulose Cocodimonium Chloride”, the “Dynamic Shake Flask Log10 Reduction” value was 0.09 Log10.

Same assay, conditions: Table 12; Meltblown; contact time 5 min
In the case of Chitosan glycolate [1.0% Chitosan], the “Dynamic Shake Flask Log10 Reduction” value is reported as 0.21 Log10. For “N-Alkyl Polyglycoside [1.0% Alkyl Polyglycoside]”, the “Dynamic Shake Flask Log10 Reduction” value was 4 Log10. In the case of “PG-Hydroxyethylcellulose Cocodimonium Chloride”, the “Dynamic Shake Flask Log10 Reduction” value is reported as 0.2 Log10.

Same assay, conditions: Table 12; Meltblown; contact time 15 min
In the case of Chitosan glycolate [1.0% Chitosan], the “Dynamic Shake Flask Log10 Reduction” value is reported as 0.25 Log10. For “N-Alkyl Polyglycoside [1.0% Alkyl Polyglycoside]”, the “Dynamic Shake Flask Log10 Reduction” value was 4 Log10. With “PG-Hydroxyethylcellulose Cocodimonium Chloride” the “Dynamic Shake Flask Log10 Reduction” value was 0.44 Log10.

Same assay, conditions: Table 12; SMS; contact time 1 min
For Chitosan glycolate [1.0% Chitosan], the “Dynamic Shake Flask Log10 Reduction” value was 0.03 Log10. “N-Alkyl Polyglycoside [1.0% Alkyl Polyglycoside]” was tested, and the “Dynamic Shake Flask Log10 Reduction” value was 0 Log10. In the case of “PG-Hydroxyethylcellulose Cocodimonium Chloride”, the “Dynamic Shake Flask Log10 Reduction” value is reported as 1.38 Log10.

Same assay, conditions: Table 12; SMS; contact time 5 min
In the case of Chitosan glycolate [1.0% Chitosan], the “Dynamic Shake Flask Log10 Reduction” value is reported as 0.57 Log10. For “N-Alkyl Polyglycoside [1.0% Alkyl Polyglycoside]”, the “Dynamic Shake Flask Log10 Reduction” value was 0 Log10. For “PG-Hydroxyethylcellulose Cocodimonium Chloride”, the “Dynamic Shake Flask Log10 Reduction” value was 2.97 Log10.

Same assay, conditions: Table 12; SMS; contact time 15 min
Chitosan glycolate [1.0% Chitosan] was tested, and the “Dynamic Shake Flask Log10 Reduction” value was 1.03 Log10. With “N-Alkyl Polyglycoside [1.0% Alkyl Polyglycoside]” the “Dynamic Shake Flask Log10 Reduction” value was 0 Log10. For “PG-Hydroxyethylcellulose Cocodimonium Chloride”, the “Dynamic Shake Flask Log10 Reduction” value was 4 Log10.

Same assay, conditions: Table 12; Spunbond; contact time 1 min
For Chitosan glycolate [1.0% Chitosan], the “Dynamic Shake Flask Log10 Reduction” value was 0 Log10. With “N-Alkyl Polyglycoside [1.0% Alkyl Polyglycoside]” the “Dynamic Shake Flask Log10 Reduction” value was 0 Log10. For “PG-Hydroxyethylcellulose Cocodimonium Chloride”, the “Dynamic Shake Flask Log10 Reduction” value was 0.33 Log10.

Same assay, conditions: Table 12; Spunbond; contact time 5 min
For Chitosan glycolate [1.0% Chitosan], the “Dynamic Shake Flask Log10 Reduction” value was 0.64 Log10. For “N-Alkyl Polyglycoside [1.0% Alkyl Polyglycoside]”, the “Dynamic Shake Flask Log10 Reduction” value was 0 Log10. With “PG-Hydroxyethylcellulose Cocodimonium Chloride” the “Dynamic Shake Flask Log10 Reduction” value was 0.63 Log10.

Same assay, conditions: Table 12; Spunbond; contact time 15 min
With Chitosan glycolate [1.0% Chitosan] the “Dynamic Shake Flask Log10 Reduction” value was 2.05 Log10. “N-Alkyl Polyglycoside [1.0% Alkyl Polyglycoside]” was tested, and the “Dynamic Shake Flask Log10 Reduction” value was 0 Log10. In the case of “PG-Hydroxyethylcellulose Cocodimonium Chloride”, the “Dynamic Shake Flask Log10 Reduction” value is reported as 1.74 Log10.
